Earlier results in publication PMC10423561, “Effects of the CYP3A inhibitors, voriconazole, itraconazole, and fluconazole on the pharmacokinetics of osimertinib in rats” (PeerJ, 2023).
Like-named read-outs stand apart in the source and are kept apart here.

Legend:
[1] = system: CYP3A; settings: CYP3A probe substrate; inhibitor not stated; ref Uchida, Tanaka & Namiki, 2014; cited from earlier work
[2] = parameters: method as in Fu et al., 2023; settings: ref Fu et al., 2023, cited from earlier work

Row | Structure (SMILES) | increase in AUC0–360 of midazolam [1] | increase in systemic exposure of almonertinib ([2]; with FCZ) | increase in systemic exposure of almonertinib ([2]; with VCZ)
1 | Cc1ncc2n1-c1ccc(Cl)cc1C(c1ccccc1F)=NC2 [midazolam] | 133% |  | 
2 | C=CC(=O)Nc1cc(Nc2nccc(-c3cn(C4CC4)c4ccccc34)n2)c(OC)cc1N(C)CCN(C)C [almonertinib] |  | 3.4 fold | 2.7 fold
